# Assay results published in patent US7314885B2, “Pyrrole compounds useful as kinase inhibitors” (Vertex Pharmaceuticals Incorporated, priority 2003, dated 2008).
# Biological target: c-Met (Homo sapiens, UniProt P08581)
# Assay: Ki determination for the inhibition of c-Met (coupled enzyme system)
# Format: biochemical
# Details: coupled enzyme assay; 200 μM ATP, 10 μM polyGluTyr, 80 nM c-Met, 30° C.
# Procedure: Ki Determination for the Inhibition of c-Met
# Compounds were screened for their ability to inhibit c-Met kinase activity using a standard coupled enzyme system (Fox et al., Protein Sci. 1998, 7, 2249). Reactions were carried out in a solution containing 100 mM HEPES (pH 7.5), 10 mM MgCl2, 25 mM NaCl, 300 μM NADH, 1 mM DTT, and 1.5% DMSO. Final substrate concentrations in the assay were 200 μM ATP (Sigma Chemicals, St Louis, Mo.) and 10 μM polyGluTyr (Sigma Chemical Company, St. Louis). Reactions were carried out at 30° C. and 80 nM c-Met. Final concentrations of the components of the coupled enzyme system were 2.5 mM phosphoenolpyruvate, 300 μM NADH, 30 μg/ml pyruvate kinase and 10 μg/ml lactate dehydrogenase.
# An assay stock buffer solution was prepared containing all of the reagents listed above with the exception of ATP and a test compound of the present invention. The assay stock buffer solution (175 μl) was incubated in a 96 well plate with 5 μl of the test compound of the present invention at final concentrations spanning 0.006 μM to 12.5 μM at 30° C. for 10 minutes. Typically, a 12-point titration was conducted by preparing serial dilutions (from 10 mM compound stocks) with DMSO of the test compounds of the present invention in daughter plates. The reaction was initiated by the addition of 20 μl of ATP (final concentration 200 μM). Rates of reaction were obtained using a Molecular Devices Spectramax plate reader (Sunnyvale, Calif.) over 10 minutes at 30° C. The Ki values were determined from the rate data as a function of inhibitor concentration.
# Sequence of c-Met (P08581 25-1390): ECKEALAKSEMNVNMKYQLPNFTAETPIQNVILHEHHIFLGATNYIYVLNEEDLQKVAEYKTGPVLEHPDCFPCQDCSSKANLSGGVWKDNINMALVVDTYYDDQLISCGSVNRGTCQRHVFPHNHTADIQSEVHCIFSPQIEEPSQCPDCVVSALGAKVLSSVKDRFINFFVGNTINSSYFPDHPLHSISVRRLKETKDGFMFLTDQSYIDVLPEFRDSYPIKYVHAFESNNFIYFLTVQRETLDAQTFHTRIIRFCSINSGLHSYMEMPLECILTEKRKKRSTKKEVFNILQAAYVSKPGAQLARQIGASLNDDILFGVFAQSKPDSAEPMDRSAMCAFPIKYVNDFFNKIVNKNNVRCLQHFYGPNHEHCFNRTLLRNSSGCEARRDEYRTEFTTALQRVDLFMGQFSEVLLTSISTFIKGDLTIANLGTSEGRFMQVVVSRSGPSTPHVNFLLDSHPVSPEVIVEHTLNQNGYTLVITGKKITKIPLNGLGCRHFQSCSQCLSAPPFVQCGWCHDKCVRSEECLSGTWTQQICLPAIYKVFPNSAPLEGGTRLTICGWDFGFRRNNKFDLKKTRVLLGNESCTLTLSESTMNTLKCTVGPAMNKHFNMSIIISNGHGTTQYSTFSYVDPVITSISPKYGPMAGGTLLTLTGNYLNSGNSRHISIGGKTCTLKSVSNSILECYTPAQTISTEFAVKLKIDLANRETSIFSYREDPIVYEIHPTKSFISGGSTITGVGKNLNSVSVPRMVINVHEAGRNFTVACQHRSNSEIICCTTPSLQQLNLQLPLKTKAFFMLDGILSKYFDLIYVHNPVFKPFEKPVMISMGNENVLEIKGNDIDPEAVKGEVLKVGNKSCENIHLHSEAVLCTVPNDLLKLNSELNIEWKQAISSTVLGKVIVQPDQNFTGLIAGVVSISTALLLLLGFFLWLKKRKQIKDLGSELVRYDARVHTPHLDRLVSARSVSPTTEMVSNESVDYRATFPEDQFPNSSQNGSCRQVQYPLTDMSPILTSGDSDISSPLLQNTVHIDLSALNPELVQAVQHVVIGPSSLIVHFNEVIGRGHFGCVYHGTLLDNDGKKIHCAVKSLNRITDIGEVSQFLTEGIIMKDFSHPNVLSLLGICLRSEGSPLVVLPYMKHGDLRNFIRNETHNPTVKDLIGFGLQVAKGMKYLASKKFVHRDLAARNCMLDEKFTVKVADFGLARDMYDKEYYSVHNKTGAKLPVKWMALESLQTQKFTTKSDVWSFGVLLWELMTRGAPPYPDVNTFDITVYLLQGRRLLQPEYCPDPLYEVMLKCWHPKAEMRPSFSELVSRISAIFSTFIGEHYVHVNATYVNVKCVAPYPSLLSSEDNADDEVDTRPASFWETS
row,SMILES,Ki [µM]
1,"O=C(NC[C@@H]1CCCO1)c1cc(-c2cncn2-c2cccc(F)c2F)c[nH]1 (stereo in doubt) [Compound I-16, 4-[3-(2,3-Difluoro-phenyl)-3H-imidazol-4-yl]-1H-pyrrole-2-carboxylic acid (tetrahydro-furan-2-ylmethyl)-amide]",1 to 10
2,"O=C(NC[C@@H]1CCCO1)c1cc(-c2nnnn2-c2cccc(F)c2F)c[nH]1 (stereo in doubt) [Compound I-24, 4-[1-(2,3-Difluoro-phenyl)-1H-tetrazol-5-yl]-1H-pyrrole-2-carboxylic acid (tetrahydro-furan-2-ylmethyl)-amide]",1 to 10
3,"O=C(NC[C@@H]1CCCO1)c1cc(-c2cnoc2-c2cccc(F)c2F)c[nH]1 [Compound I-4, 4-[5-(2,3-Difluoro-phenyl)-isoxazol-4-yl]-1H-pyrrole-2-carboxylic acid (S-tetrahydro-furan-2-ylmethyl)-amide]",1 to 10
4,"O=C(NC[C@@H]1CCCO1)c1cc(-n2cncc2-c2cccc(F)c2F)c[nH]1 [Compound I-10, 4-[5-(2,3-Difluoro-phenyl)-imidazol-1-yl]-1H-pyrrole-2-carboxylic acid (S-tetrahydro-furan-2-ylmethyl)-amide]",1 to 10
5,"O=C(c1cc(-c2nncn2-c2cccc(F)c2F)c[nH]1)N1CC=CC1 [Compound I-37, (4-(4-(2,3-difluorophenyl)-4H-1,2,4-triazol-3-yl)-1H-pyrrol-2-yl)(2H-pyrrol-1(5H)-yl)methanone]",> 10
6,"O=C(c1cc(-n2nnnc2-c2cccc(F)c2F)c[nH]1)N1CC=CC1 [Compound I-38, (4-(5-(2,3-difluorophenyl)-1H-tetrazol-1-yl)-1H-pyrrol-2-yl)(2H-pyrrol-1(5H)-yl)methanone]",1 to 10
7,O=C(NC[C@@H]1CCCO1)c1cc(-c2nncn2-c2cccc(Cl)c2Cl)c[nH]1 [Compound I-39],1 to 10
8,O=C(c1cc(-c2nncn2-c2cccc(Cl)c2Cl)c[nH]1)N1CC=CC1 [Compound I-40],1 to 10
9,O=C(NCCCn1ccnc1)c1cc(-c2nncn2-c2cccc(Cl)c2Cl)c[nH]1 [Compound I-41],1 to 10
10,"O=C(NCCCn1ccnc1)c1cc(-n2cnnc2-c2cccc(F)c2F)c[nH]1 [Compound I-44, N-(3-(1H-imidazol-1-yl)propyl)-4-(3-(2,3-difluorophenyl)-4H-1,2,4-triazol-4-yl)-1H-pyrrole-2-carboxamide]",> 10
11,"O=C(NC[C@@H]1CCCO1)c1cc(-c2sncc2-c2cccc(F)c2F)c[nH]1 [Compound I-46, 4-(4-(2,3-difluorophenyl)isothiazol-5-yl)-N-(((S)-tetrahydrofuran-2-yl)methyl)-1H-pyrrrole-2-carboxamide]",1 to 10
12,O=C(c1cc(-c2[nH]nnc2-c2cccc(F)c2F)c[nH]1)N1CCCC1 [Compound I-47],1 to 10
